Measurements from the NIST ThermoML archive (doi:10.1016/j.tca.2011.07.005).
“And” between values parts separate entries of the source, which are not always exact repeats. Equal entries are not always repeated.

Tests used:
[1] = xn = mol fraction of the nth substance listed; settings: 101 kPa, Liquid; for speed of sound: Linear variable-path acoustic interferometer; for mass density: Pycnometric method
[2] = 101 kPa, Liquid; for speed of sound: Linear variable-path acoustic interferometer; for mass density: Pycnometric method

C1CCOC1 [tetrahydrofuran] + Nc1ccccc1Cl
[1], x1 = 1
Settings	mass density [kg/m3]	speed of sound [m/s]
303.15 K	876.9	1254
313.15 K	865.7	1207
323.15 K	854.8	1165

C1CCOC1 [tetrahydrofuran]
[2]
Settings	mass density [kg/m3]	speed of sound [m/s]
303.15 K	876.9	1254
313.15 K	865.7	1207
323.15 K	854.8	1165

CC(C)OC(C)C [diisopropyl ether] + Nc1cccc(Cl)c1
[1], x1 = 1
Settings	mass density [kg/m3]	speed of sound [m/s]
303.15 K	712.9	976
313.15 K	702.9	932
323.15 K	691.9	889

Nc1ccccc1Cl [2-chlorobenzeneamine]
[2]
Settings	mass density [kg/m3]	speed of sound [m/s]
303.15 K	1202.7	1470
313.15 K	1193	1438
323.15 K	1183.3	1402

C1CCOC1 [tetrahydrofuran] + Nc1cccc(Cl)c1
[1], x1 = 1
Settings	mass density [kg/m3]	speed of sound [m/s]
303.15 K	876.9	1254
313.15 K	865.7	1207
323.15 K	854.8	1165

Nc1cccc(Cl)c1 [3-chlorobenzenamine] + C1CCOC1
[1]
Settings	mass density, 303.15 K [kg/m3]	mass density, 313.15 K [kg/m3]	mass density, 323.15 K [kg/m3]	speed of sound, 303.15 K [m/s]	speed of sound, 313.15 K [m/s]	speed of sound, 323.15 K [m/s]
x2 = 0	1205.3	1196	1186.6	1517	1486	1452
x2 = 0.0728	1189.4	1180.6	1171.5	1500	1468	1436
x2 = 0.1321	1175.7	1167.1	1157.9	1487	1455	1424
x2 = 0.2389	1149.7	1140.6	1131.3	1465	1432	1400
x2 = 0.3272	1126.8	1117	1107.4	1446	1412	1380
x2 = 0.4116	1102.9	1093.2	1083.3	1427	1392	1360
x2 = 0.5161	1071.3	1061.4	1051.5	1403	1366	1333
x2 = 0.6297	1033.5	1023.9	1014.3	1373	1336	1301
x2 = 0.7419	992	982.7	973.7	1341	1302	1266
x2 = 0.8633	941.6	932.3	923.4	1302	1260	1222

Nc1ccccc1Cl [2-chlorobenzeneamine] + C1CCOC1
[1]
Settings	mass density, 303.15 K [kg/m3]	mass density, 313.15 K [kg/m3]	mass density, 323.15 K [kg/m3]	speed of sound, 303.15 K [m/s]	speed of sound, 313.15 K [m/s]	speed of sound, 323.15 K [m/s]
x2 = 0	1202.7	1193	1183.3	1470	1438	1402
x2 = 0.0695	1187.6	1177.4	1167.9	1461	1427	1395
x2 = 0.1543	1167.6	1157.7	1148.6	1450	1415	1383
x2 = 0.2423	1146	1136.3	1127	1436	1401	1369
x2 = 0.3275	1124.2	1114.5	1105	1422	1386	1353
x2 = 0.4213	1098.7	1088.7	1079.1	1404	1367	1333
x2 = 0.5259	1067.6	1057.4	1047.5	1383	1344	1308
x2 = 0.6325	1032	1021.8	1012.2	1359	1319	1281
x2 = 0.744	990.1	980.1	971	1331	1289	1250
x2 = 0.8663	938.4	928.5	920	1296	1252	1212

CC(C)OC(C)C [diisopropyl ether]
[2]
Settings	mass density [kg/m3]	speed of sound [m/s]
303.15 K	712.9	976
313.15 K	702.9	932
323.15 K	691.9	889

Nc1cccc(Cl)c1 [3-chlorobenzenamine] + CC(C)OC(C)C
[1]
Settings	mass density, 303.15 K [kg/m3]	mass density, 313.15 K [kg/m3]	mass density, 323.15 K [kg/m3]	speed of sound, 303.15 K [m/s]	speed of sound, 313.15 K [m/s]	speed of sound, 323.15 K [m/s]
x2 = 0	1205.3	1196.1	1186.6	1517	1484	1452
x2 = 0.0619	1171.2	1163.2	1154.7	1484	1451	1418
x2 = 0.1302	1134.1	1126.7	1118.2	1448	1414	1380
x2 = 0.2031	1095.7	1088.2	1079.3	1410	1374	1340
x2 = 0.2827	1055.1	1047.4	1038	1368	1331	1295
x2 = 0.3716	1011.3	1003.4	993.6	1321	1283	1246
x2 = 0.4676	965	957.2	947.6	1270	1230	1192
x2 = 0.5803	911.2	903.7	894.5	1209	1168	1129
x2 = 0.7235	842.6	835.3	826.7	1132	1089	1048
x2 = 0.8428	785.4	777.7	768.7	1066	1023	981

Nc1cccc(Cl)c1 [3-chlorobenzenamine]
[2]
Settings	mass density	speed of sound
303.15 K	1205.3 kg/m3	1517 m/s
313.15 K	1196.1 kg/m3 and 1196 kg/m3	1484 m/s and 1486 m/s
323.15 K	1186.6 kg/m3	1452 m/s
